Test results published in ChEMBL document CHEMBL1275492, “In vitro activity of ceftobiprole against pathogens from two phase 3 clinical trials of complicated skin and skin structure infections” (2008).

Tests used:
Type in all cases: functional
[1] = system: Staphylococcus aureus; test: Antibacterial activity against Staphylococcus aureus obtained from complicated skin and skin structure infections by agar dilution method
[2] = system: Staphylococcus aureus; test: Antibacterial activity against methicillin resistant Staphylococcus aureus obtained from complicated skin and skin structure infections by agar dilution method
[3] = system: Staphylococcus aureus; test: Antibacterial activity against methicillin susceptible Staphylococcus aureus obtained from complicated skin and skin structure infections by agar dilution method
[4] = system: Staphylococcus epidermidis; test: Antibacterial activity against coagulase-negative Staphylococcus epidermidis obtained from complicated skin and skin structure infections by agar dilution method
[5] = system: Staphylococcus haemolyticus; test: Antibacterial activity against coagulase-negative Staphylococcus haemolyticus obtained from complicated skin and skin structure infections by agar dilution method
[6] = system: Staphylococcus lugdunensis; test: Antibacterial activity against coagulase-negative Staphylococcus lugdunensis obtained from complicated skin and skin structure infections by agar dilution method
[7] = system: Staphylococcus hominis; test: Antibacterial activity against coagulase-negative Staphylococcus hominis obtained from complicated skin and skin structure infections by agar dilution method
[8] = system: Staphylococcus capitis; test: Antibacterial activity against coagulase-negative Staphylococcus capitis obtained from complicated skin and skin structure infections by agar dilution method
[9] = system: Staphylococcus saprophyticus; test: Antibacterial activity against coagulase-negative Staphylococcus saprophyticus obtained from complicated skin and skin structure infections by agar dilution method
[10] = system: Staphylococcus cohnii; test: Antibacterial activity against coagulase-negative Staphylococcus cohnii obtained from complicated skin and skin structure infections by agar dilution method
[11] = system: Mammaliicoccus sciuri; test: Antibacterial activity against coagulase-negative Staphylococcus sciuri obtained from complicated skin and skin structure infections by agar dilution method
[12] = system: Staphylococcus warneri; test: Antibacterial activity against coagulase-negative Staphylococcus warneri obtained from complicated skin and skin structure infections by agar dilution method
[13] = system: Staphylococcus lugdunensis; test: Antibacterial activity against methicillin-resistant, oxacillin-susceptible, coagulase-negative, mecA-positive Staphylococcus lugdunensis obtained from complicated skin and skin structure infections by agar dilution method
[14] = system: Staphylococcus; test: Antibacterial activity against methicillin-susceptible, coagulase-negative Staphylococcus obtained from complicated skin and skin structure infections by agar dilution method
[15] = system: Enterococcus faecalis; test: Antibacterial activity against Enterococcus faecalis obtained from complicated skin and skin structure infections by agar dilution method
[16] = system: Enterococcus faecium; test: Antibacterial activity against Enterococcus faecium obtained from complicated skin and skin structure infections by agar dilution method
[17] = system: Streptococcus agalactiae; test: Antibacterial activity against Streptococcus agalactiae obtained from complicated skin and skin structure infections by agar dilution method
[18] = system: Streptococcus pyogenes; test: Antibacterial activity against Streptococcus pyogenes obtained from complicated skin and skin structure infections by agar dilution method
[19] = Antibacterial activity against Streptococcus sp. 'group C' obtained from complicated skin and skin structure infections by agar dilution method
[20] = Antibacterial activity against Streptococcus sp. 'group G' obtained from complicated skin and skin structure infections by agar dilution method
[21] = system: Streptococcus constellatus; test: Antibacterial activity against Streptococcus constellatus obtained from complicated skin and skin structure infections by agar dilution method
[22] = system: Streptococcus mitis; test: Antibacterial activity against Streptococcus mitis obtained from complicated skin and skin structure infections by agar dilution method
[23] = system: Staphylococcus intermedius; test: Antibacterial activity against Staphylococcus intermedius obtained from complicated skin and skin structure infections by agar dilution method
[24] = system: Aerococcus viridans; test: Antibacterial activity against Aerococcus viridans obtained from complicated skin and skin structure infections by agar dilution method
[25] = system: Bacillus; test: Antibacterial activity against Bacillus spp. obtained from complicated skin and skin structure infections by agar dilution method
[26] = system: Gemella morbillorum; test: Antibacterial activity against Gemella morbillorum obtained from complicated skin and skin structure infections […]
[27] = system: Gemella; test: Antibacterial activity against Gemella spp. obtained from complicated skin and skin structure infections by agar dilution method
[28] = system: Lactococcus lactis; test: Antibacterial activity against Lactococcus lactis obtained from complicated skin and skin structure infections by agar dilution method
[29] = system: Micrococcus; test: Antibacterial activity against Micrococcus spp. obtained from complicated skin and skin structure infections by agar dilution method

CN[C@H](CC(C)C)C(=O)N[C@H]1C(=O)N[C@@H](CC(N)=O)C(=O)N[C@H]2C(=O)N[C@H]3C(=O)N[C@H](C(=O)N[C@H](C(=O)O)c4cc(O)cc(O)c4-c4cc3ccc4O)[C@H](O)c3ccc(c(Cl)c3)Oc3cc2cc(c3O[C@@H]2O[C@H](CO)[C@@H](O)[C@H](O)[C@H]2O[C@H]2C[C@](C)(N)[C@H](O)[C@H](C)O2)Oc2ccc(cc2Cl)[C@H]1O [VANCOMYCIN]
0.5 µg/mL: MIC50 [17] | MIC90 [17] | MIC50 [18] | MIC90 [18] | MIC50 [19] | MIC90 [20] | MIC50 [21] | MIC90 [21]
1 µg/mL: MIC50 [1] | MIC90 [1] | MIC50 [2] | MIC90 [2] | MIC50 [3] | MIC90 [3] | MIC50 [4] | MIC50 [5] | MIC50 [6] | MIC50 [7] | MIC50 [8] | MIC50 [9] | MIC50 [10] | MIC50 [11] | MIC50 [12] | MIC50 [13] | MIC50 [14] | MIC [15] | MIC50 [15] | MIC50 [16] | MIC90 [19] | MIC50 [22] | MIC90 [22] | MIC50 [23] | MIC90 [23] | MIC50 [24] | MIC90 [24] | MIC50 [25] | MIC90 [25] | MIC50 [26] | MIC90 [26] | MIC50 [27] | MIC90 [27] | MIC50 [28] | MIC90 [28] | MIC50 [29] | MIC90 [29]
2 µg/mL: MIC90 [4] | MIC90 [5] | MIC90 [6] | MIC90 [7] | MIC90 [8] | MIC90 [9] | MIC90 [10] | MIC90 [11] | MIC90 [12] | MIC90 [13] | MIC90 [14] | MIC90 [15]
0.25 µg/mL: MIC [20] | MIC50 [20]

CC[C@H]1OC(=O)[C@H](C)[C@@H](O[C@H]2C[C@@](C)(OC)[C@@H](O)[C@H](C)O2)[C@H](C)[C@@H](O[C@@H]2O[C@H](C)C[C@H](N(C)C)[C@H]2O)[C@](C)(O)C[C@@H](C)C(=O)[C@H](C)[C@@H](O)[C@]1(C)O [ERYTHROMYCIN]
0.25 µg/mL: MIC50 [1] | MIC50 [3] | MIC50 [4] | MIC50 [5] | MIC50 [6] | MIC50 [7] | MIC50 [8] | MIC50 [9] | MIC50 [10] | MIC50 [11] | MIC50 [12] | MIC50 [14]
0.12 µg/mL: MIC90 [19]
> 16 µg/mL: MIC90 [1] | MIC90 [4] | MIC90 [5] | MIC90 [6] | MIC90 [7] | MIC90 [8] | MIC90 [9] | MIC90 [10] | MIC90 [11] | MIC90 [12] | MIC90 [15] | MIC90 [17]
1 µg/mL: MIC90 [20]
> 8 µg/mL: MIC50 [2] | MIC90 [3] | MIC50 [13] | MIC90 [14] | MIC50 [15]
≤ 0.06 µg/mL: MIC50 [21] | MIC [22] | MIC50 [22] | MIC [23] | MIC50 [23]
2 µg/mL: MIC50 [16]
0.03 µg/mL: MIC50 [19] | MIC50 [24] | MIC50 [25] | MIC50 [26] | MIC50 [27] | MIC50 [28] | MIC50 [29]
8 µg/mL: MIC90 [24] | MIC90 [25] | MIC90 [26] | MIC90 [27] | MIC90 [28] | MIC90 [29]
0.06 µg/mL: MIC50 [17] | MIC50 [18] | MIC90 [18] | MIC50 [20] | MIC90 [21] | MIC90 [22] | MIC90 [23]
